From patent publication US8765773B2, “Substituted hydroxamic acids and uses thereof” (Millennium Pharmaceuticals, Inc., priority 2010, dated 2014)

Molecular target: T1, purified human HDAC6 (Homo sapiens, UniProt Q9UBN7)
T1 construct: purchased BPS Bioscience 5006
T1 sequence (Q9UBN7 1-1215): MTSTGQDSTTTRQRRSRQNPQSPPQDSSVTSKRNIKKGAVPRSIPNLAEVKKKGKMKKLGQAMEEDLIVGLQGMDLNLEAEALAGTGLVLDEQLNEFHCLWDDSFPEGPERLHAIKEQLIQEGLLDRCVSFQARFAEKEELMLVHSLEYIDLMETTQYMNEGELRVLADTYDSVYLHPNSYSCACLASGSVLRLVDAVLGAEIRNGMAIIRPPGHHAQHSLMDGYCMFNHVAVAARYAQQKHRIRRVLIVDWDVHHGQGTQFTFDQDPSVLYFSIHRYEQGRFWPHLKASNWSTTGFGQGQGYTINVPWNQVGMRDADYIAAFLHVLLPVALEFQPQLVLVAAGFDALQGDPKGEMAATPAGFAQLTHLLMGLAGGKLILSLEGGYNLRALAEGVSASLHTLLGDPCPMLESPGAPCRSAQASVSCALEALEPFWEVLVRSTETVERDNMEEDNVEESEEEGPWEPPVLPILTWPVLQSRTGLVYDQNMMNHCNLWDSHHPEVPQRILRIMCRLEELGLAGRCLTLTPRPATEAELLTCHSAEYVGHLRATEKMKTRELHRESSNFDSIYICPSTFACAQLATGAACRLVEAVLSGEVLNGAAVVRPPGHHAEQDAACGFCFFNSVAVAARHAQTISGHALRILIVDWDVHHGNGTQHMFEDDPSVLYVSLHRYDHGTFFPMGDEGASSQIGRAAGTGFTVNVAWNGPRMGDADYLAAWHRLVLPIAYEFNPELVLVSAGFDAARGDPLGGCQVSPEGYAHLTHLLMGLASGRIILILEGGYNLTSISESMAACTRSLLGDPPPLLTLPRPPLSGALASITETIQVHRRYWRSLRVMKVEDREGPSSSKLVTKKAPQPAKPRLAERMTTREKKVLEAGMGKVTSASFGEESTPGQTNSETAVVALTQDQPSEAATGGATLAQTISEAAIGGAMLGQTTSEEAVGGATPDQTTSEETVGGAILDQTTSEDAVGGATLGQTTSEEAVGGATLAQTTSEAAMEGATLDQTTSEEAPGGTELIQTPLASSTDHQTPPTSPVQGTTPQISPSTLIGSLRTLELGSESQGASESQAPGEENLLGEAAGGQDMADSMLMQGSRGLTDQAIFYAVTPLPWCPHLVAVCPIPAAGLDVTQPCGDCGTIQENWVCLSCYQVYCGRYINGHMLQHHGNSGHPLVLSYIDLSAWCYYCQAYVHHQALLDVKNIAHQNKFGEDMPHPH
Assay: HDAC6 Enzyme Assay
Type: biochemical
Settings: compound concentration 0.37 μM, read-out: Percent Inhibition
In short: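 Purified human HDAC6 incubated 1 h at 30° C with Ac-Arg-Gly-Lys(Ac)-AMC peptide plus compound or DMSO; stopped with trichostatin A. Deacetylated product trypsin-digested, released AMC read by fluorescence (Ex 340/Em 460 nm). Percent inhibition at one concentration or IC50 from curves relative to DMSO controls.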

Compound | inhibition at 0.37 µM [%]
CN(C)Cc1cn(Cc2ccccc2)c(=O)c2cc(C(=O)NO)ccc12 [Compound I-419, 2-benzyl-4-[(dimethylamino)methyl]-N-hydroxy-1-oxo-1,2-dihydroisoquinoline-7-carboxamide] | 23.2
O=C(NO)c1ccc2c(=O)[nH]c(C3CCCC3)nc2c1 [Compound I-420, 2-cyclopentyl-N-hydroxy-4-oxo-3,4-dihydroquinazoline-7-carboxamide] | 85.3
